Assay results: paper PMC8496750, “Identification of the organic anion transporting polypeptides responsible for the hepatic uptake of the major metabolite of epyrifenacil, S‐3100‐CA, in mice” (Pharmacology Research & Perspectives, 2021)

What was measured:
[1] = biological target: T1, mouse Oatp1a4 (Mus musculus, UniProt Q9EP96); experiment: in vitro; settings: 293FT cells transiently transfected with mouse Oatp1a4, probe radiolabeled S‐3100‐CA
T1 sequence (Q9EP96 1-670): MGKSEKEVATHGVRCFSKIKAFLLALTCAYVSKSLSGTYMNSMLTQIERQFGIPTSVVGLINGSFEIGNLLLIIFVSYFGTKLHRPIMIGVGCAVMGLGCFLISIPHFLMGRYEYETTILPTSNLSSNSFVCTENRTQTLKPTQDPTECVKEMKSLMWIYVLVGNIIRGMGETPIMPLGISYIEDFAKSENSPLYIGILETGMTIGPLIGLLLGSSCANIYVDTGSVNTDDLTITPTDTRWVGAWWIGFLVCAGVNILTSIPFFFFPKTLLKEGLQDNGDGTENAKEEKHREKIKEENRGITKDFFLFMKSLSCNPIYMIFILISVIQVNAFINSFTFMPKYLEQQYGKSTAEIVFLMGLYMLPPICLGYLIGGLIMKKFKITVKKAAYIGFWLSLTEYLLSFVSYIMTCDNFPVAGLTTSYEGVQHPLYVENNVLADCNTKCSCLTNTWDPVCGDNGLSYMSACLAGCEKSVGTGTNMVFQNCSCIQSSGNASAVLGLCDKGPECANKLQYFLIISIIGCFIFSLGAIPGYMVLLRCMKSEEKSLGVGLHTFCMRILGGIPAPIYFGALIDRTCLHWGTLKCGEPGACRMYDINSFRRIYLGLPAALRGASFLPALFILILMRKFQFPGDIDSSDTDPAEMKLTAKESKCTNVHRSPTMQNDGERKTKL
Procedure: Transport experiments were conducted approximately 24 h post‐transfection. The experiments were initiated by aspirating culture medium and addition of pre‐warmed radiolabeled substrate solution (final 1.0% of acetonitrile or 0.9% of ethanol in phosphate‐buffered saline (PBS[−])) to each well. After a 10‐min incubation, cells were washed twice with 1 ml of ice‐cold PBS(−) and lysed with 700 μl of 1.0 M NaOH for 3 h or more at room temperature. The lysate was transferred to a 1.5‐ml tube, and neutralized with 350 μl of 2.0 M HCl and 350 μl of 2.0% sodium dodecyl sulfate (SDS) solution. From the lysate, 1.0 ml was transferred to a vial containing 10 ml of Emulsifier Scintillator Plus to measure the radioactivity in the LSC. The protein concentration of the cell lysate was also measured using a Pierce™ BCA Protein Assay Kit (Thermo Fisher Scientific, Inc.), which was used to normalize, according to the cell number, the radioactivity in the cell lysate extract. The protein assay was performed in duplicate. Each sample type was assayed in triplicate wells, and each run was performed twice. […] Each sample type was assayed in triplicate wells.

[2] = biological target: T2, human OATP1B3 (Homo sapiens, UniProt Q9NPD5); experiment: Inhibition of S‐3100‐CA uptake by OATP inhibitors, human OATP1B3; type: in vitro ADME; settings: inhibitor at 100 μM
T2 construct: expressed in transfected cells; host or cells: 293FT cells
T2 sequence (Q9NPD5 1-702): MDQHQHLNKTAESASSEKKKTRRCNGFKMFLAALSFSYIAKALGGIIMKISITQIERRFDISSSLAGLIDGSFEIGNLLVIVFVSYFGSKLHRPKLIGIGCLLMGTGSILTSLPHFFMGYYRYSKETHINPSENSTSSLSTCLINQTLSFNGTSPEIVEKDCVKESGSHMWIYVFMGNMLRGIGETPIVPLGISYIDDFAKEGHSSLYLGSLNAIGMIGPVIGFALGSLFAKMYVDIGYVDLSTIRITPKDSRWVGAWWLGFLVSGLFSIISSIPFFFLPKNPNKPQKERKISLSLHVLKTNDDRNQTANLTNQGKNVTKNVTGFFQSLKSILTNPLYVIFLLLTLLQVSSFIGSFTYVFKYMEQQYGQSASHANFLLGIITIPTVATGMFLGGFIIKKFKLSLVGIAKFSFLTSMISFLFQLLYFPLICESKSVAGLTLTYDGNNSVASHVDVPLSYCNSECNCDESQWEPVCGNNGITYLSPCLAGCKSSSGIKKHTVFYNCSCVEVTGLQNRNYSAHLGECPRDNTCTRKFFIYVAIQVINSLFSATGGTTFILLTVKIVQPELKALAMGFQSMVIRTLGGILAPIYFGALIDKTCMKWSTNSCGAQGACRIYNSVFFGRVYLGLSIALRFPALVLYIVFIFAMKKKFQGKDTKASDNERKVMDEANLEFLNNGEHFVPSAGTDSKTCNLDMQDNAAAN
Procedure: 293FT cells were purchased from Thermo Fisher Scientific, Inc.. The cells were grown in Dulbecco's modified Eagle medium (supplemented with 4.5 g/L glucose and 2 mM L‐glutamine) at 37°C, 5% CO2, and 95% humidity. The cells were passaged 3 times per week by harvesting cells using trypsin and plating at a density of 1.0 × 10^4 cells/cm^2 in a 10 cm cell culture plate for maintenance culture. The 293FT cells were detached using trypsin and re‐seeded at a density of 2.5 × 10^4 cells/cm^2 in BioCoat™ Collagen I 6‐well plates (Corning Inc.) for transfection and then treated with 1.2 μg of plasmid vector and 3.2 μl of Lipofectamine™ 2000 Transfection Reagent (Thermo Fisher Scientific, Inc.) according to the manufacturer's instructions. After a 3‐h treatment, the transfection medium was replaced with a fresh cell culture medium and incubated at 37°C with 95% humidity and 5% CO2 until ready for the assay.
Transport experiments were conducted approximately 24 h post‐transfection. […] From the lysate, 1.0 ml was transferred to a vial containing 10 ml of Emulsifier Scintillator Plus to measure the radioactivity in the LSC. The protein concentration of the cell lysate was also measured using a Pierce™ BCA Protein Assay Kit (Thermo Fisher Scientific, Inc.), which was used to normalize, according to the cell number, the radioactivity in the cell lysate extract. […]

[3] = tested on: hepatocytes; set-up: method as in PMID 34908893; settings: mouse vs human hepatocytes; cited from earlier work

SMILES	inhibition at 10 min, 10 µM [1]	Uptake of S‐3100‐CA, % of that by vehicle‐treated cells [2]	Amount taken up by mouse hepatocytes relative to human hepatocytes [3]
CO[C@H]1/C=C/O[C@@]2(C)Oc3c(C)c(O)c4c(O)c(c(/C=N/N5CCN(C)CC5)c(O)c4c3C2=O)NC(=O)/C(C)=C\C=C\[C@H](C)[C@H](O)[C@@H](C)[C@@H](O)[C@@H](C)[C@H](OC(C)=O)[C@@H]1C [RIF, Rifampicin]	> 50%	less than 40%	
Cn1c(C(F)(F)F)cc(=O)n(-c2cc(Oc3cccnc3OCC(=O)O)c(Cl)cc2F)c1=O [S‐3100‐CA]			6–13 times
